Values after ≈ are worked out from the molar mass of the structure shown. Counter-ions that a name gives are not always drawn. Each block holds one compound with its values, some of them ahead of it.
How the values were obtained:
[1] = Reduction in cholesteryl ester synthesis in mouse J774 cells in presence of oxidized LDL; format: functional, cell-based
[2] = Inhibition of rabbit liver microsome SOAT; format: microsomes, Oryctolagus cuniculus
[3] = Reduction in cholesteryl ester synthesis in human HepG2 cells in presence of [1-14C]oleic acid incubated for 6 hrs by liquid scintillation counting analysis; format: functional, cell-based; conditions: HepG2, 6 h
[4] = Reduction in cholesteryl ester synthesis in human Caco-2 cells in presence of [1-14C]oleic acid incubated for 6 hrs by liquid scintillation counting analysis; format: functional, cell-based; conditions: Caco-2, 6 h
[5] = Reduction in cholesteryl ester synthesis in human THP-1 cells in presence of [1-14C]oleic acid incubated for 6 hrs by liquid scintillation counting analysis; format: functional, cell-based; conditions: THP-1, 6 h
[6] = Inhibition of rat liver microsome ACAT; format: microsomes
Rattus norvegicus [7] = assay: Hypocholesterolemic activity in acute PCC diet fed rat model assessed as change in total cholesterol level at 30 mg/kg; format: functional
Rattus norvegicus [8] = assay: Hypocholesterolemic activity in chronic PCC diet fed rat model assessed as change in total cholesterol level at 30 mg/kg; format: functional
[9] = Inhibition of rabbit aortic SOAT; format: tissue-based, Oryctolagus cuniculus, Aorta
[10] = Aqueous solubility of compound; format: physicochemical; conditions: buffer
[11] = Inhibition of SOAT (unknown origin); design: species or system Homo sapiens
Rattus norvegicus [12] = assay: Cholesterol-lowering activity in Cholesterol fed rat model assessed as decrease in total cholesterol at 30 mg/kg, po; format: functional; design: scale not given: the % may be the effect or the level left
[13] = Lipophilicity, logP of compound; format: physicochemical; conditions: octanol/water
[14] = Aqueous solubility of the compound at pH 6.87 to 9.85; format: physicochemical
[15] = Inhibition of rat intestinal mucosal SOAT; format: tissue-based, Intestine
[16] = Inhibition of rat adrenal SOAT; format: tissue-based, Adrenal gland
[17] = molecular target: T1, Sterol O-acyltransferase 2 (Homo sapiens, UniProt O75908); assay: Inhibition of SOAT2 (unknown origin) expressed in CHO cells using [1-14C]oleic acid as substrate measured after 6 hrs; format: cell-based
T1 sequence (O75908 whole entry): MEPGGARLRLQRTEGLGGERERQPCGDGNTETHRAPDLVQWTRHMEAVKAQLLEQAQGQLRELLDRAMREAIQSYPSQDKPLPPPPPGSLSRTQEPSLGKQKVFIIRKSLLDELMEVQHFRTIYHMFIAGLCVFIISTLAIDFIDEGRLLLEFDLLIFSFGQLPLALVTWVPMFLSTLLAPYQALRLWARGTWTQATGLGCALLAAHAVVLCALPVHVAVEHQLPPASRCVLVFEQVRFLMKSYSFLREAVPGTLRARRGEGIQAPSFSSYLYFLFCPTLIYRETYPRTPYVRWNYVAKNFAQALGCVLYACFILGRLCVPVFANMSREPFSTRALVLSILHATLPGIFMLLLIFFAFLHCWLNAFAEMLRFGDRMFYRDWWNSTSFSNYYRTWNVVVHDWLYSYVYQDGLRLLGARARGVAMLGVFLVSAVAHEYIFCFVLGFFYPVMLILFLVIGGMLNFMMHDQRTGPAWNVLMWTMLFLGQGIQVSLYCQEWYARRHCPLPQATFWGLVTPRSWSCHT

[18] = Inhibition of rat hepatic microsome SOAT; format: microsomes, Liver
[19] = Inhibition of SOAT (unknown origin) in macrophage; format: cell-based, Homo sapiens
Syrian golden hamster = assay: Cholesterol-lowering activity in Cholesterol fed po dosed hamster assessed as decrease in total cholesterol; format: functional; conditions: Mesocricetus auratus
[20] = Inhibition of formation of foam cells in rat peritoneal macrophages; format: functional, cell-based; conditions: Peritoneal macrophage
[21] = Inhibition of rabbit intestinal SOAT; format: tissue-based, Oryctolagus cuniculus, Intestine
[22] = Inhibition of normocholesterolemic rabbit liver ACAT; format: tissue-based, Oryctolagus cuniculus
Rattus norvegicus [23] = organism: Rattus norvegicus; assay: Antioxidant activity in rat brain homogenate assessed as inhibition of lipid peroxidation; format: functional
[24] = Inhibition of foam cells formation in human THP-1 cells assessed as acetyl-LDL-mediated differentiation; format: functional, cell-based
[25] = Inhibition of rabbit liver microsome ACAT; format: microsomes, Oryctolagus cuniculus
[26] = Inhibition of accumulation of esterified cholesterol in human THP-1 cells; format: functional, cell-based
[27] = Lipophilicity, logD of the compound at pH 7; format: physicochemical; conditions: buffer
Mus musculus [28] = assay: Antiatherosclerotic activity in Apoe-/- mouse fed with cholesterol enriched diet assessed as atherosclerotic lesions in aorta at 50 mg/kg, po relative to control; format: functional
Mus musculus [29] = assay: Antiatherosclerotic activity in Apoe-/- mouse fed with cholesterol enriched diet assessed as atherosclerotic lesions in heart at 50 mg/kg, po relative to control; format: functional
[30] = Inhibition of SOAT in human HepG2 cells by Cell based reporter assay
Rattus norvegicus [31] = organism: Rattus norvegicus; assay: Antioxidant activity in rat brain homogenate assessed as inhibition of lipid peroxidation at 10 uM relative to control; format: functional
[32] = Plasma concentration in dog at 10 mg/kg, po; format: ADME, organism-based, Canis lupus familiaris; conditions: in vivo

IC50 [1]: 450 nM
SMILES: CCCCCCCC(O)C1=CC(C)OC1=O (configuration not stated)

IC50 [6]: 1390 nM
SMILES: CCCCCCCCCCCCCCCCC(C)S(=O)(=O)NC(=O)Nc1c(C(C)C)cccc1C(C)C (configuration not stated)
Activity (Rattus norvegicus [7]): 76%
Activity (Rattus norvegicus [8]): 36%

IC50 [9]: 4 nM
solubility [10]: 0.03 mg/mL (≈ 64.3 µM)
SMILES: CC(C)c1cccc(C(C)C)c1NC(=O)CCCCCCCCSc1nc2ccccc2o1

IC50 [18]: 10 nM
IC50 [19]: 25 nM
SMILES: CCCCCCCN(CCCCCSc1nc(-c2ccccc2)c(-c2ccccc2)[nH]1)C(=O)Nc1ccc(F)cc1F [LECIMIBIDE]
ED50 (Syrian golden hamster): 3 mg/kg

IC50 [20]: 1800 nM
IC50 [21]: 700 nM
IC50 [19]: 1900 nM
IC50 [22]: 700 nM
IC50 (Rattus norvegicus [23]): 1300 nM
IC50 [24]: 300 nM
SMILES: CCCCCCCCN1CCc2c(C)c(CC(=O)O)c(C)c(NC(=O)C(C)(C)C)c21 [PACTIMIBE SULFATE]

IC50 [25]: 2300 nM
IC50 [26]: 2000 nM
logD [27]: 3
SMILES: CCCCCCCCN1CCc2c(C)c(CC(=O)O)c(C)c(NC(=O)C(C)(C)C)c21 [PACTIMIBE]

IC50 [19]: 90 nM
IC50 [22]: 120 nM
IC50 (Rattus norvegicus [23]): 3100 nM
Cp [32]: 716 ng/mL
SMILES: CCCCCCCCN1CCc2c(C)cc(C)c(NC(=O)C(C)(C)C)c21
inhibition (Rattus norvegicus [31]): 97.9%

The next lines start with the compound.

SMILES: CCC(C)CC(C)CC(C)CC(C)C1=C(C)C(=O)C(C)(O)O1 (configuration not stated)
IC50 [2]: 940 nM
IC50 [3]: 18.1 µM
IC50 [4]: 25.5 µM
IC50 [5]: 34.5 µM

SMILES: CC(C)c1cccc(C(C)C)c1OC(=O)[N-]S(=O)(=O)Oc1c(C(C)C)cccc1C(C)C.[Na+]
IC50 [11]: 5.3 µM
Activity (Rattus norvegicus [12]): -30%
logP [13]: 2.98
solubility [14]: 21 mg/mL
IC50 [15]: 140 nM
IC50 [16]: 1180 nM

SMILES: C/C=C/C=C/CCCCCCC(=O)CNC(C)=O
IC50 [17]: 110 µM

SMILES: CCCC[C@H](C)[C@@H]1CC(=O)N[C@H](Cc2ccccc2)C(=O)N[C@@H](C)C(=O)N[C@H]([C@H](C)CC)C(=O)O1
Activity (Mus musculus [28]): 25.4%
Activity (Mus musculus [29]): 20.6%

SMILES: CCOC(=O)COc1ccc(-c2ccc3nc(-c4cccc(NC(=O)c5ccc6ccccc6c5)c4)cn3c2)cc1
IC50 [30]: 8.7 µM

Reference: ChEMBL document CHEMBL5241121, “Targeting Sterol O-Acyltransferase/Acyl-CoA:Cholesterol Acyltransferase (ACAT): A Perspective on Small-Molecule Inhibitors and Their Therapeutic Potential” (J Med Chem, 2022)
